Publication PMC8322070, “A novel orally active HDAC6 inhibitor T-518 shows a therapeutic potential for Alzheimer’s disease and tauopathy in mice” (Scientific Reports, 2021)
Where two headings read alike, the source gives them in different places.

Assays:
human HDAC4 = target: T1, human HDAC4 (Homo sapiens, UniProt P56524); assay: HDAC enzyme assay (HDAC-Glo class IIa), HDAC4; assay type: biochemical; conditions: concentrations up to 10 μM
T1 construct: made in house
Procedure: Recombinant HDAC6, HDAC7, HDAC1 were obtained from SignalChem Pharmaceutical Inc. (Richmond, BC, Canada), and recombinant human HDAC4 was prepared at Takeda pharmaceutical company. One μL of T-518 diluted with DMSO was added to 75 μL of assay buffer (24 mM Tris–HCl (pH 7.5), 135 mM NaCl, 0.35 mM KCl, 1 mM MgCl2, 0.01% Tween 20, 0.6 mM GSH) in 384 well plates. Two μL of diluted compounds were added to 384 well plates and 2 μL of recombinant HDAC enzymes was added and then centrifuged at 1000 rpm for 10 s. The final concentrations of each HDAC enzyme were as follows, human HDAC1, 170 pM; human HDAC6, […]; human HDAC4, 68 pM; human HDAC7, 13 pM. After incubation for 60 min at room temperature, 4 μL of HDAC-Glo reagent [HDAC-Glo I/II (Promega) for HDAC6 and HDAC1, HDAC-Glo class IIa (Promega) for HDAC4 and HDAC7] was added to start the reaction. After incubation for 20 min at room temperature, the luminescence was measured by Envision plate reader (PerkinElmer, Waltham, MA, USA). For experiments under the condition of 0 min preincubation, 4 μL of HDAC-Glo reagent was added at first to the 384 well plates including diluted compounds. […] After centrifugation at 1000 rpm for 10 s. and then incubation for 20 min at room temperature, the luminescence was measured by Envision. […] The inhibitory activity of T-518 was expressed as the value of IC50. […]

P301S tau Tg mice [1] = assay: Septohippocampal retrograde axonal transport of Fluoro-Gold in tauopathy model; assay type: in vivo, mouse; conditions: 3 mg/kg daily for 2 weeks, 5-month-old P301S tau Tg mice
Procedure: (§1) T-518, ACY-738, Ricolinostat, and Tubastatin A were synthesized in Takeda. For in vitro cellular experiments, the compounds were solubilized with DMSO and diluted in the culture medium at the indicated concentrations. For in vivo experiments, the compound was reconstituted in 0.5% methylcellulose and administered orally at the indicated doses. After administration, mouse hippocampus was isolated and homogenized in RIPA extraction buffer (50 mM Tris–HCl, 150 mM NaCl, 1% NP-40, 0.5% sodium deoxycholate, and 0.1% SDS, pH 8.0) supplemented with protease and phosphatase inhibitor cocktail (Thermo Fischer, Waltham, MA, USA). The homogenate was centrifuged at 10,000g for 15 min and the supernatant was taken as the RIPA-soluble fraction.
The integrity of retrograde axonal transport was evaluated by detecting the accumulation of Fluoro-Gold (Fluorochrome, Denver, CO) in the medial septal nucleus after injection into hippocampus (0.5 μL of 5% at AP − 2.3 mm, ML − 2.0 mm, and DV − 2.0 mm relative to bregma). Three days after injection, mice were anesthetized and transcardially perfused with PBS (pH 7.4) followed by 4% paraformaldehyde. […] Fluorescent cells in the medial septum region were counted with Image-Pro Plus software (version 4.5.0.24) (Media Cybernetics, Rockville, MD; https://www.mediacy.com/imageproplus).

P301S tau Tg mice [2] = assay: Novel object recognition test; assay type: in vivo, mouse; conditions: 1 and 3 mg/kg for 2 weeks
Procedure: as §1
The effect of T-518 on behavioral function was examined using the novel object recognition test: The box and objects used were purchased from BrainScience Idea (Osaka, Japan). The 30 × 30 × 35 cm gray-colored test box was used. The two objects used were pyramidal, white-colored, and ceramic (object A and A′) and cylindrical, silver, and aluminum (object B). In the acquisition phase, the identical objects (objects A and A′) were symmetrically placed in the box. Each animal was placed in the box for 5 min followed by a 24-h retention interval in the home cage. […] Time spent exploring the objects were measured during both phases. […]

[3] = In vivo pharmacokinetics in plasma and hippocampus (LC-MS/MS); design: species or system C57BL mice; conditions: 3 mg/kg, po
Procedure: as §1
The compound concentration was measured by the method previously reported with modification. Briefly, the hippocampus tissues from treated mice were isolated and homogenized in 4 volumes of saline under ice-cold conditions and stored at − 80 °C until liquid chromatography-tandem mass spectrometry (LC–MS/MS) analysis. Before analysis, samples were thawed gently on ice and mixed with three volumes of acetonitrile. The acetonitrile mixtures were vortexed and centrifuged for supernatant collection. The supernatant was diluted in mobile phase A [10 mM ammonium formate and formic acid at 100:0.2 (v/v)] and injected into the LC/MS/MS system. T-518 was analyzed in multiple reaction monitoring mode using an API4000 or API5000 instrument (Applied Biosystems, Foster City, CA, USA) equipped with a Prominence Ultra-fast liquid chromatography system (Shimadzu, Kyoto, Japan) using Shimadzu Shim- pack XR-ODS (2.2 μm, 2.0 × 30 mm) column. Mobile phase B consisted of a mixture of acetonitrile and formic acid at 100:0.2 (v/v). Chromatographic separations were performed by gradient elution at a flow rate of 0.7 mL/min. Mobile phase B was held at 5% for 0.2 min, increased linearly to 99% for 1.1 min, maintained at 99% for 0.7 min, then returned to 5% in 0.01 min, followed by re-equilibration for 0.59 min. A multiple reaction monitoring was used to detect the parent and product ions for the tandem mass spectrometry of T-518, which were corresponding to m/z 494 and m/z 374, respectively, with the negative ion mode [DP; -40, EP; -10, CE; -35, CXP; -15 (arbitrary units)]. Analyst software TM (version 1.6.2) (AB SCIEX, Framingham, MA; https://sciex.com/products/software/analyst-software) was used for data acquisition and processing.

T1 sequence (P56524 whole entry): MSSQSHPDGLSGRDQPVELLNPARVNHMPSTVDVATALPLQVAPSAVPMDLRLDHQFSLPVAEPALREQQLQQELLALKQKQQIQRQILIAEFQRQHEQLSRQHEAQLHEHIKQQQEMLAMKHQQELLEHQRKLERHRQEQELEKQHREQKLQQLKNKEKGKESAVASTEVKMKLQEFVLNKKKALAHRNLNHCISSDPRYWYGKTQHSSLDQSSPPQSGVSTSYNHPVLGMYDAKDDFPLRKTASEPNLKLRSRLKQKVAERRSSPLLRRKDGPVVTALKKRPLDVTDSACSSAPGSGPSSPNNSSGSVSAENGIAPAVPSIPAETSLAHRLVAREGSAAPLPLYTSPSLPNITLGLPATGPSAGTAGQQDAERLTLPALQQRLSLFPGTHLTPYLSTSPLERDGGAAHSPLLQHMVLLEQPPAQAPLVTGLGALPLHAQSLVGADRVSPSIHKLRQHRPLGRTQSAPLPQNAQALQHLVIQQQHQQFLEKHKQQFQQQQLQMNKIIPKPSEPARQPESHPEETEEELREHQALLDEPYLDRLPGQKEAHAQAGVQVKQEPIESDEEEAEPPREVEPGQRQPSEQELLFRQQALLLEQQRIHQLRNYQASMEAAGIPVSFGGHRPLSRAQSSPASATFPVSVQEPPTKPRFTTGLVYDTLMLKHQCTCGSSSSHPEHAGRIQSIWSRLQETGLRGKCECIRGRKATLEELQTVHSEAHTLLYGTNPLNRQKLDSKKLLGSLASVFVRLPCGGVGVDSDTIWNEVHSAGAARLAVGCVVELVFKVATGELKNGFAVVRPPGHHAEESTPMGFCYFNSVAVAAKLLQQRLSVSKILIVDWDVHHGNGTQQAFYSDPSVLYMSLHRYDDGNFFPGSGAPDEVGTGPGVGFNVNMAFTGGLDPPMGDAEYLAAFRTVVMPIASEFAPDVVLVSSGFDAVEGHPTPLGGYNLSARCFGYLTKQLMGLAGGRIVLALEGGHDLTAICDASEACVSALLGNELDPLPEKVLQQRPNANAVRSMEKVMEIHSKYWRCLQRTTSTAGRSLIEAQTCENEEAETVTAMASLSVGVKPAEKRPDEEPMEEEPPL

Q: Which results are given for O=C1c2cc(-c3nnc(C(F)F)o3)cnc2CN1[C@@H]1CCCC[C@H]1NC(=O)C(F)(F)C(F)(F)F [T-518, N-[(1R,2R)-2-{3-[5-(difluoromethyl)-1,3,4-oxadiazol-2-yl]-5-oxo-5H,6H,7H-pyrrolo[3,4-b]pyridin-6-yl}cyclohexyl]-2,2,3,3,3-pentafluoropropanamide]?
A: inhibition of human HDAC4 enzyme activity (human HDAC4): did not obviously inhibit; retrograde axonal transport of Fluoro-Gold from hippocampus to medial septal nucleus (P301S tau Tg mice [1]): significantly improved axonal transport; novel object recognition deficit (preference ratio) (P301S tau Tg mice [2]): dose-dependently ameliorated; average exposure in 24 h in hippocampus ([3]; Fu,b 0.4): ~17 nM; Hippocampus AUC0–24 h ([3]; C57BL mice): 202 ng·h/g; Cmax ([3]; C57BL, mouse, hippocampus, Fu,b 0.4, read-out: Effective Cmax in hippocampus): ~291 nM; Tmax ([3]; C57BL, mouse, plasma and hippocampus, matrix not given, read-out: Tmax of a single oral dose): ≤ 15 min; Cmax ([3]; mouse, hippocampus, C57BL mice, read-out: Hippocampus Cmax): 144 ng/g; MRT ([3]; mouse, hippocampus, C57BL mice, read-out: Hippocampus MRT): 79.8 min; Tmax ([3]; mouse, hippocampus, C57BL mice, read-out: Hippocampus Tmax): 15 min; AUC(0-t) ([3]; mouse, plasma, C57BL mice, read-out: Plasma AUC0–24 h): 1720 ng·h/mL; Cmax ([3]; mouse, plasma, C57BL mice, read-out: Plasma Cmax): 1040 ng/mL; MRT ([3]; mouse, plasma, C57BL mice, read-out: Plasma MRT): 106 min; Tmax ([3]; mouse, plasma, C57BL mice, read-out: Plasma Tmax): 15 min
